Results taken from patent US10888567B2, “Inhibitors of tryptophan dioxygenases (IDO1 and TDO) and their use in therapy” (AUCKLAND UNISERVICES LIMITED, priority 2014, dated 2021).

What was measured:
[1] = biological target: Recombinant human IDO1 (rhIDO1) (Homo sapiens (Human), UniProt P14902); test: Enzymatic assay for IDO1 activity; type: biochemical; details: rhIDO1 9 nM, 80 μM TRP, 37° C. 30 min
Experimental: Recombinant human IDO1 (rhIDO1) was expressed and purified from cultures of EC538 strain of E. coli transformed with pREP4 and pQE9-IDO plasmid. Reaction mixes were set up in 384-well microplates containing 50 mM phosphate buffer, 10 mM ascorbic, 10 μM methylene blue, 100 μg/mL catalase, 80 μM TRP, 0.01% Tween 20 (v/v) mixed with rhIDO1 (15 μL) at a final concentration of 9 nM in a total volume of 30 μL assay medium. The plates were incubated at 37° C. for 30 min, and the enzymatic reaction was terminated by adding piperidine (200 mM) and heated at 65° C. for 20 min. Fluorescence intensity was read at λex 400 nm and λem 500 nm. Test compounds were dissolved in 100% DMSO and pre-diluted in assay medium prior to adding rhIDO1. IDO1 inhibition (%) was calculated as
[formula] All experiments were carried out in triplicates, and statistical Analyses were conducted in Prism v5 (Graphpad Software, Inc., La Jolla, Calif., USA). Cell-Based Assay for IDO1 Inhibition

[2] = biological target: human IDO1 (LLTC-hIDO1 cells) (Homo sapiens, UniProt P14902); test: Cell-based assay for IDO1 inhibition (kynurenine in supernatant); details: IDO1-transfected Lewis Lung carcinoma cells, 24 h; read-out: Cellular IC50
Experimental: Culture supernatant from each well was then transferred into a fresh, flat-bottomed 96-well plate, mixed with trichloroacetic acid (10% final concentration) and incubated for 20 min at 60° C. […] The absorbance of each well was read at 480 nm, and the concentration that inhibited 50% cellular enzyme activity was calculated.

[3] = system: Lewis Lung carcinoma cells transfected to express IDO1 (LLTC-hIDO1); test: MTT cell viability in the cellular IDO1 assay; type: cell-based; details: same experiment as cellular IDO1 assay
Experimental: The viability of the cells in each well in the same experiment was determined using the 3-(4,5-dimethylthiazolyl-2-yl)-2,5-diphenyltetrazolium bromide (MTT) colourimetric assay. After the removal of the supernatant for determination of IDO1 inhibition, the cells were incubated with MTT (500 μg/mL) until crystal formation was observed. […] DMSO (100 μL/well) was added to dissolve the crystals and then the absorbance in each well was measured at 570 nm. Cell viability in each well was expressed as a percentage of untreated controls. Triplicate cultures were used for all experiments unless stated otherwise.

Recombinant human IDO1 (rhIDO1), sequence (P14902 whole entry): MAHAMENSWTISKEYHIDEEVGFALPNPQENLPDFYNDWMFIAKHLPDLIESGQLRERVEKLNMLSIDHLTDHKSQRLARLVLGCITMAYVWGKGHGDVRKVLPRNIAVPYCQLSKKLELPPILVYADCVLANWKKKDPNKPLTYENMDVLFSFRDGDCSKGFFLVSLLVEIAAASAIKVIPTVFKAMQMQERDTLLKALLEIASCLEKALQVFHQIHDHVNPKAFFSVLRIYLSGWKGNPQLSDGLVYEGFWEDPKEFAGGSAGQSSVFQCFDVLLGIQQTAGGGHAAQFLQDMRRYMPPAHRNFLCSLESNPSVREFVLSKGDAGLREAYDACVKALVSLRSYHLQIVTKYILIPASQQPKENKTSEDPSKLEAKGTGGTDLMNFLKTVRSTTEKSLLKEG

SMILES	IC50 [1]	IC50 [2]	IC50 [3]
CCOC(=O)c1cc2c(N)noc2nc1C(F)F [Compound 54, Ethyl 3-amino-6-(difluoromethyl)isoxazolo[5,4-b]pyridine-5-carboxylate]	> 100 µM	10 to 100 µM	> 100 µM
Nc1noc2nc(NC3CC3)c(F)cc12 [Compound 56, N6-Cyclopropyl-5-fluoroisoxazolo[5,4-b]pyridine-3,6-diamine]	> 100 µM	> 100 µM	> 100 µM
CN(C)c1nc2onc(N)c2cc1F [Compound 57, 5-Fluoro-N6,N6-dimethylisoxazolo[5,4-b]pyridine-3,6-diamine]	> 100 µM	> 100 µM	> 100 µM
Nc1noc2nc(-c3ccco3)ccc12 [Compound 58, 6-(Furan-2-yl)isoxazolo[5,4-b]pyridin-3-amine]	> 100 µM	1 to 10 µM	> 100 µM
Nc1noc2nc3c(cc12)CCC3 [Compound 59, 6,7-Dihydro-5H-cyclopenta[b]isoxazolo[4,5-e]pyridin-3-amine]	> 100 µM	> 100 µM	> 100 µM
CSc1ncc2c(N)noc2n1 [Compound 63, 6-(Methylthio)isoxazolo[5,4-d]pyrimidin-3-amine]	> 100 µM	10 to 100 µM	> 100 µM
Cc1ncc2c(N)noc2n1 [Compound 64, 6-Methylisoxazolo[5,4-d]pyrimidin-3-amine]	> 100 µM	10 to 100 µM	> 100 µM
CSc1nc(-c2ccccc2)nc2onc(N)c12 [Compound 65, 4-(Methylthio)-6-phenylisoxazolo[5,4-d]pyrimidin-3-amine]	> 100 µM	> 100 µM	> 100 µM
Nc1noc2nc(Cl)c(Cl)cc12 [Compound 67, 5,6-Dichloroisoxazolo[5,4-b]pyridin-3-amine]	< 1 µM	1 to 10 µM	> 100 µM
Nc1noc2nc(Cl)cc(C(F)(F)F)c12 [Compound 68, 6-Chloro-4-(trifluoromethyl)isoxazolo[5,4-b]pyridin-3-amine]	> 100 µM	10 to 100 µM	> 100 µM
COCC#Cc1cnc2onc(N)c2c1 [Compound 69, 5-(3-Methoxyprop-1-yn-1-yl)isoxazolo[5,4-b]pyridin-3-amine]	> 100 µM	10 to 100 µM	> 100 µM
COc1ccc(-c2ccc3c(N)noc3n2)cc1 [Compound 70, 6-(4-Methoxyphenyl)isoxazolo[5,4-b]pyridin-3-amine]	> 100 µM	> 100 µM	> 100 µM
Nc1noc2nc(-c3ccc(F)cc3)ccc12 [Compound 71, 6-(4-Fluorophenyl)isoxazolo[5,4-b]pyridin-3-amine]	> 100 µM	10 to 100 µM	> 100 µM
Nc1noc2nc(-c3ccc(Cl)cc3Cl)ccc12 [Compound 72, 6-(2,4-Dichlorophenyl)isoxazolo[5,4-b]pyridin-3-amine]	> 100 µM	> 100 µM	> 100 µM
Nc1noc2nc(-c3ccc(F)cc3F)ccc12 [Compound 73, 6-(2,4-Difluorophenyl)isoxazolo[5,4-b]pyridin-3-amine]	> 100 µM	10 to 100 µM	> 100 µM
Nc1noc2nc(-c3cccs3)ccc12 [Compound 74, 6-(2-Thienyl)isoxazolo[5,4-b]pyridin-3-amine]	> 100 µM	1 to 10 µM	> 100 µM
Cn1nccc1-c1ccc2c(N)noc2n1 [Compound 75, 6-(1-Methyl-1H-pyrazol-5-yl)isoxazolo[5,4-b]pyridin-3-amine]	> 100 µM	> 100 µM	> 100 µM
CN(C)CCCOc1ccc2c(N)noc2n1 [Compound 76, 6-(3-(Dimethylamino)propoxy)isoxazolo[5,4-b]pyridin-3-amine]	> 100 µM	> 100 µM	> 100 µM
CN(C)CCOc1ccc2c(N)noc2n1 [Compound 77, 6-(2-(Dimethylamino)ethoxy)isoxazolo[5,4-b]pyridin-3-amine]	> 100 µM	> 100 µM	> 100 µM
